Measurements taken from BindingDB's records for doi:10.1016/j.bmcl.2012.10.009 (Abbott Laboratories, 2012).

Experiment: Inhibition of PLK1 in human MIAPaCa2 cells after 48 hrs by MTT assay

| Compound | EC50 [nM] |
| --- | --- |
| CC(C)(C)Nc1c(Nc2ccnc(Nc3ccc(-c4ccncc4)cc3)n2)c(=O)c1=O | 1050 |
| CC(C)(C)Nc1c(Nc2ccnc(Nc3ccc(-c4cccnc4)cc3)n2)c(=O)c1=O | 2550 |
| CC(=O)N1CCc2cc(Nc3nccc(Nc4c(NC(C)(C)C)c(=O)c4=O)n3)ccc21 | 1470 |
| CC(C)(C)Nc1c(Nc2ccnc(Nc3ccc(-c4cn[nH]c4)cc3)n2)c(=O)c1=O | 1610 |
| CC(C)(C)Nc1c(Nc2ccnc(Nc3ccc4c(c3)[nH]c3ccccc34)n2)c(=O)c1=O | 5000 |
| CC(C)(C)Nc1c(Nc2ccnc(Nc3ccc4c(c3)CCO4)n2)c(=O)c1=O | 2860 |
| CC(C)(C)Nc1c(Nc2ccnc(Nc3ccc4ncsc4c3)n2)c(=O)c1=O | 2860 |
| CC(C)(C)Nc1c(Nc2ccnc(Nc3ccc(-c4ccccn4)cc3)n2)c(=O)c1=O | 8280 |
| CC(C)(C)Nc1c(Nc2ccnc(Nc3ccc(N4CCOCC4)cc3)n2)c(=O)c1=O | 8890 |
| CC(C)(C)Nc1c(Nc2ccnc(Nc3ccc4[nH]ncc4c3)n2)c(=O)c1=O | 1470 |
| CC(C)(C)Nc1c(Nc2ccnc(Nc3ccc(-c4csnn4)cc3)n2)c(=O)c1=O | 8320 |
| CC(C)(C)Nc1c(Nc2ccnc(Nc3ccc(-c4ccccc4)cc3)n2)c(=O)c1=O | > 30000 |
| CC(C)(C)Nc1c(Nc2ccnc(Nc3ccc4c(c3)Cc3ccccc3-4)n2)c(=O)c1=O | > 30000 |
